The results in this text go back to patent US10792311B2, “Stimulation of ovarian follicle development and oocyte maturation” (The Board of Trustees of the Leland Stanford Junior …, priority 2011, dated 2020).

The subject of one assay is preantral follicles. The assay is described as follows: Preantral follicle culture. It counts as cell-based, mice. As to conditions: preantral follicles of day 13 mice, four days. The text has this:
CNP treatment promoted the growth of preantral follicles and cultured ovarian explants: Preantral follicles (125-135 um in diameter) were isolated from ovaries of mice at day 13 of age and treated with different hormones for four days with daily monitoring of follicle diameters. […] In contrast, treatment with ANP was ineffective.
Dissection follicles of different sizes and culturing of preantral follicles: For RT-PCR analyses, early secondary follicles of 90-140 um in diameters were isolated from mice at day 13 of age whereas antral follicles (300-400 um in diameter) were isolated from prepubertal mice at day 23 of age. Preovulatory follicles (500-600 um in diameter) were isolated from prepubertal mice treated with eCG (5 IU). For follicle cultures, preantral follicles (125-145 um in diameter) were isolated from mice at day 13 of age and cultured individually in 96 well plates containing alpha-MEM (100 ul/well) with penicillin and streptomycin together with insulin, transferrin and selenium. […] The media were changed every two days and follicle growth was monitored daily by measuring follicle diameters.

The subject of assay [1] is ovaries from day 10 mice. Description: Ovarian explant cultures treated with CNP and/or FSH. The assay is classed as cell-based. The protocol: Ovarian explant cultures: Ovaries from day 10 mice were placed on culture plate inserts (Millipore, Bedford, Mass.) and cultured in 400 μl of DMEM/F12 containing 0.1% BSA (Sigma), 0.1% Albumax II, insulin-transferrin-selenium, 0.05 mg/ml L-ascorbic acid and penicillin-streptomycin under the membrane insert to cover ovaries with a thin layer of medium. […] Some explants were also treated with a pan-specific protein kinase G inhibitor, Rp-8-Br-PET-cGMPS (BioLog, Bremen, Germany). At the end of culture, ovaries were fixed in Bouin's solution, paraffin embedded, and cut into continuous sections before staining with hematoxylin and eosin.

Assay [2] relates to ovaries from day 10 mice. The assay is described as follows: Ovarian explant cultures treated with R-spondin2 and/or FSH. The assay is classed as cell-based. As to conditions: explant cultures. The protocol: Ovarian explant cultures: Ovaries from day 10 mice were placed on culture plate insert (Millipore, Bedford, Mass.) and cultured in 400 μl of DMEM/F12 (Gibco) containing 0.1% BSA (Sigma), 0.1% Albumax II (Gibco), insulin-transferrin-selenium (Gibco), 0.05 mg/ml L-ascorbic acid (Sigma) and penicillin-streptomycin (Gibco) under the membrane insert to cover ovaries with a thin layer of medium. […] Explants treated with non-immune IgG or boiled (100 C, 15 min) R-spondin2 antibodies served as negative controls. At the end of culture, ovaries were fixed in Bouin's solution, paraffin embedded, and cut into continuous sections before staining with hematoxylin and eosin. Only follicles with clearly stained oocyte nucleus were counted to prevent recounting of the same follicle.

The test system of assay [3] is canonical Wnt signaling pathway. The assay is described as follows: TCF-luciferase assay in cultured ovarian somatic cells. To be noted: somatic cells of day 10 mice. It counts as cell-based. The procedure:
TCF-luciferase assay: Ovarian somatic cells from day 10 mice were cultured overnight at 37 C in McCoy's 5a medium containing 10% fetal bovine serum (FBS; Gibco) before evaluation of Wnt signaling based on the TCF-luciferase assay. Cells were transfected with 1 μg of pTOP FLASH or pFOP FLASH plasmid together with 0.1 μg of pRL-TK plasmid using lipofectamine 2000 (Invitrogen, Carlsbad, Calif.) for 6 h. […] Luciferase activity expressed as relative light unit was determined using a Dual Luciferase Reporter Assay Kit (Promega) with a luminometer (Bio-Rad).
Luciferase activity was measured as an index of Wnt signaling. […] To estimate the number of viable cells, cells were also cultured with increasing doses of R-spondin2 with or without Wnt3a before measurement of mitochondrial reductase (MTS) activity.

Assay [4] has as its system somatic cells obtained from day 10 ovaries. The assay is described as follows: Cell proliferation (MTS) assay of ovarian somatic cells. To be noted: agent alone, 2 days. The assay is classed as cell-based, mice. The procedure:
Cell proliferation assay: Ovaries obtained from day 10 mice were digested with collagenase I, DNase, and trypsin. After centrifuging at 270×g for 10 min., cell pellet was washed and plated in a 96-well plate (BD Falcon, Franklin Lakes, N.J.) in McCoy's 5a medium (Gibco BRL, Grand Island, N.Y.) containing 4 mg/ml BSA (Sigma Aldrich Chemicals, St. Louis, Mo.), penicillin-streptomycin (Gibco) and sodium pyruvate (Gibco) for 3 h at 37 C. After washing twice with PBS to remove floating oocytes, cells were cultured in serum-free McCoy's 5a medium containing different factors for 48 h. MTS (3-(4,5-dimethylthiazol-2-yl)-5-(3-carboxymethoxyphenyl)-2-(4-sulfophenyl)-2H-tetrazolium) assay was performed using Cell Titer 96 Aqueous One Solution Cell Proliferation Assay (Promega, Madison, Wis.) by adding the substrate for 2 h before measuring absorbance at 490 nm.

On to `Nc1nc2c(nc(Br)n2[C@@H]2O[C@@H]3COP(=O)(O)O[C@H]3[C@H]2O)c(=O)[nH]1` [8-bromo-cGMP, reference compound], for which the “Follicle size (diameter)” value in the assay with preantral follicles is recorded as “induced”.

Consider `CC[C@H](C)[C@@H]1NC(=O)[C@H](CCCNC(=N)N)NC(=O)[C@H](CC(=O)O)NC(=O)[C@H](CCSC)NC(=O)[C@H](CCCNC(=N)N)NC(=O)CNC(=O)CNC(=O)[C@H](Cc2ccccc2)NC(=O)[C@@H](NC(=O)[C@H](CO)NC(=O)[C@H](CO)NC(=O)[C@H](CCCNC(=N)N)NC(=O)[C@H](CCCNC(=N)N)NC(=O)[C@H](CC(C)C)NC(=O)[C@@H](N)CO)CSSC[C@@H](C(=O)N[C@@H](CC(N)=O)C(=O)N[C@@H](CO)C(=O)N[C@@H](Cc2ccccc2)C(=O)N[C@@H](CCCNC(=N)N)C(=O)N[C@@H](Cc2ccc(O)cc2)C(=O)O)NC(=O)CNC(=O)[C@H](CC(C)C)NC(=O)CNC(=O)[C@H](CO)NC(=O)[C@H](CCC(N)=O)NC(=O)[C@H](C)NC(=O)CNC1=O` [ANP, reference compound], for which the “Follicle size (diameter)” value in the assay on preantral follicles was “ineffective”. The “Ovarian weights of explants” value with ovaries from day 10 mice [1] (day 10 ovaries, 4 days culture) was “not”. For the molecule `O=c1c2nc(Br)n([C@@H]3O[C@@H]4CO[P@@](O)(=S)O[C@H]4[C@H]3O)c2nc2[nH]c(-c3ccccc3)cn12` [Rp-8-Br-PET-cGMPs, Rp-8-Br-PET-cGMPS, reference compound], in the assay on ovaries from day 10 mice [1] (explant culture), the “Effect on stimulatory effects of CNP on ovarian weight” value is “blocked the stimulatory effects of CNP”. Further, in the assay on ovaries from day 10 mice [1] (explant culture, FSH 100 ng/ml), the “Effect on effects of a high dose of FSH on ovarian weight” value is given as “partially suppressed the effects of a high dose of FSH”.

B1: DKK1: Dickkopf1, a Wnt signaling antagonist (protein, UniProt O94907 32-266, looked up)
Dickkopf-related protein 1: TLNSVLNSNAIKNLPPPLGGAAGHPGSAVSAAPGILYPGGNKYQTIDNYQPYPCAEDEECGTDEYCASPTRGGDAGVQICLACRKRRKRCMRHAMCCPGNYCKNGICVSSDQNHFRGEIEETITESFGNDHSTLDGYSRRTTLSSKMYHTKGQEGSVCLRSSDCASGLCCARHFWSKICKPVLKEGQVCTKHRRKGSHGLEIFQRCYCGEGLSCRIQKDHHQASNSSRLHTCQRH
On to B1, for which, in the assay with ovaries from day 10 mice [2], the “Effect on stimulatory effects of FSH on ovarian growth” value is recorded as “not blocked”. The “Effect on R-spondin2- and Wnt3a-stimulated TCF-luciferase activity” value in assay [3] is “blocked the stimulatory effects”.

B2: Wnt3a: Wnt ligand (protein, UniProt P56704 19-352, looked up)
Protein Wnt-3a: SYPIWWSLAVGPQYSSLGSQPILCASIPGLVPKQLRFCRNYVEIMPSVAEGIKIGIQECQHQFRGRRWNCTTVHDSLAIFGPVLDKATRESAFVHAIASAGVAFAVTRSCAEGTAAICGCSSRHQGSPGKGWKWGGCSEDIEFGGMVSREFADARENRPDARSAMNRHNNEAGRQAIASHMHLKCKCHGLSGSCEVKTCWWSQPDFRAIGDFLKDKYDSASEMVVEKHRESRGWVETLRPRYTYFKVPTERDLVYYEASPNFCEPNPETGSFGTRDRTCNVSSHGIDGCDLLCCGRGHNARAERRREKCRCVFHWCCYVSCQECTRVYDVHTCK
As for B2, the “MTS activity (viable cell number)” value in assay [4] was “stimulated MTS activity in a dose-dependent manner”. Further, in assay [3] (agent alone, 18 h), the TCF-luciferase activity result was “minimal stimulation”.
